The values below come from BindingDB's records for doi:10.1016/j.bmcl.2013.07.018 (Chungnam National University, 2013).

This experiment is described as follows: Inhibition of Fas-mediated cell death in oxygen and glucose deprived rat H9c2 cells treated 30 mins before oxygen and glucose deprivation measured after 6 hrs by DAPI staining.

`COC(=O)c1nn(CCc2ccccc2)cc1NC(=O)COc1ccc(Br)cc1`: a half-maximal effect (EC50) was put at 355 nM. As for `COC(=O)c1nn(CCc2ccccc2)cc1NC(=O)CCc1ccccc1`, the EC50 (in general, the concentration that produces a half-maximal response) worked out at 427 nM.

In turn, `COC(=O)c1sc2ccccc2c1NC(=O)CCSc1ccc(Br)cc1` came in with an EC50 of 724 nM. Compound `O=C(CSc1ccc(Br)cc1)Nc1c(C(=O)O)oc2ccccc12` gave an EC50 of 724 nM. Compound `COC(=O)c1cc(Br)cc(Br)c1NC(=O)CCSc1ccccn1` came in with a 50% effective concentration (EC50) of 933 nM. With `O=C(CSc1ccc(Br)cc1)Nc1c(Br)cc(Br)cc1C(=O)O` the figure was 1230 nM; with `COC(=O)c1ccsc1NC(=O)CCSc1ccc(Br)cc1`, 589 nM; with `COC(=O)c1ccsc1NC(=O)CSc1ccc(Br)cc1`, 759 nM. With `COC(=O)c1ccsc1NC(=O)CSc1ccccc1` the figure was 724 nM; with `COC(=O)c1sccc1NC(=O)CN(C)c1ccccc1`, 661 nM. With `CN(C)C(=O)c1sccc1NC(=O)CSc1ccc(Br)cc1` the figure was 851 nM; with `COC(=O)c1sccc1NC(=O)CSc1ccccc1`, 794 nM; with `O=C(CCSc1ccccn1)Nc1cc(Cl)ccc1C1=NCCO1`, 1740 nM. In the case of `O=C(CSc1ccc(Br)cc1)Nc1ccccc1C(=O)O`, the EC50 is 2240 nM. For `COC(=O)c1sccc1NC(=O)CCSc1ccc(Br)cc1`, the concentration for a half-maximal effect (EC50) is 1290 nM. With `COC(=O)c1c(NC(=O)CSc2cccc(OC)c2)cnn1CCc1ccccc1` the figure was 437 nM; with `COC(=O)c1sccc1NC(=O)CSc1ccc(Br)cc1`, 427 nM. On to `COC(=O)c1sccc1NC(=O)COc1ccc(Br)cc1`, for which a half-maximal response (EC50) required 891 nM. As for `COC(=O)c1sccc1NC(=O)CSc1ccc(OC)cc1`, it took 871 nM to reach a half-maximal effect (EC50). Consider `COC(=O)c1sc2ccccc2c1NC(=O)CSc1ccccc1`, for which the EC50 was 692 nM. In the case of `COc1cc(C(=O)O)c(NC(=O)CCSc2ccccn2)c(OC)c1OC`, it took 2090 nM to reach a half-maximal effect (EC50). With `COC(=O)c1cc(OC)c(OC)c(OC)c1NC(=O)CCSc1ccccn1` the figure was 1070 nM. Take `COC(=O)c1cc(OC)c(OC)cc1NC(=O)CCSc1ccccn1`: a half-maximal effect (EC50) was put at 1320 nM. For `COC(=O)c1ccc(Cl)cc1NC(=O)CCSc1ccccn1`, the concentration giving a half-maximal response (EC50) came to 1020 nM. As for `COC(=O)c1cc(Br)cc(Br)c1NC(=O)C(Sc1ccc(Br)cc1)c1ccccc1` (stereo not drawn), the figure is 1580 nM; as for `O=C(O)c1cc(Cl)ccc1NC(=O)C(Sc1ccc(Br)cc1)c1ccccc1` (stereo not drawn), 2000 nM; as for `COc1cc(NC(=O)CSc2ccc(Br)cc2)c(C2=NCCO2)cc1OC`, 955 nM. Compound `COC(=O)c1ccc(Cl)cc1NC(=O)CSc1ccc(Br)cc1` yielded an EC50 of 955 nM. `COC(=O)c1ccccc1NC(=O)CSc1ccccc1`: the concentration for a half-maximal effect (EC50) was 562 nM.

`COC(=O)c1sccc1NC(=O)CCSc1ccccc1` came in with an EC50 of 501 nM. With `COC(=O)c1c(NC(=O)CSc2ccccc2N)cnn1CCc1ccccc1` the figure was 513 nM; with `COC(=O)c1c(NC(=O)CSc2ccc(Br)cc2)cnn1CCc1ccccc1`, 513 nM; with `COC(=O)c1c(NC(=O)CSc2ccc([N+](=O)[O-])cc2)cnn1CCc1ccccc1`, 457 nM. With `Cc1csc(C(=O)O)c1NC(=O)CSc1ccc(Br)cc1` the figure was 1120 nM.

`COC(=O)c1sccc1NC(=O)CSc1cccc(OC)c1` gave an EC50 of 575 nM. Regarding `COC(=O)c1sc2ncccc2c1NC(=O)CCSc1ccccn1`, it took 490 nM to reach a half-maximal effect (EC50).

For the compound `COC(=O)c1oc2cccc(Cl)c2c1NC(=O)CSc1ccc(Br)cc1`, the EC50 amounted to 1150 nM. In turn, `COC(=O)c1oc2ccccc2c1NC(=O)CSc1ccc(Br)cc1` showed a concentration for a half-maximal effect (EC50) of 661 nM. As for `COC(=O)c1oc2cccc(Cl)c2c1NC(=O)CCSc1ccccn1`, the EC50 is 631 nM. `COC(=O)c1oc2cccc(Cl)c2c1NC(=O)CSc1ccccn1` displayed an EC50 of 646 nM.

For the compound `COC(=O)c1oc2ccccc2c1NC(=O)COc1ccc(Br)cc1`, the EC50 came to 1050 nM. The compound `COC(=O)c1oc2ccccc2c1NC(=O)CSc1ccc([N+](=O)[O-])cc1` registered an EC50 of 575 nM.

In turn, `COC(=O)c1ccccc1NC(=O)CSc1ccccn1` [2-[[1-oxo-2-(2-pyridinylthio)ethyl]amino]benzoic acid methyl ester] yielded an EC50 of 692 nM.
